For test [1], the system named is HCT-116. As to the kind of experiment: cells. As to conditions: Homo sapiens.
In test [2] the test system is MCF7. The test can be described thus: Anticancer activity against human MCF7 cells assessed as reduction in cell viability. It counts as functional, cell-based.
The next test has as its target DNA. As to the kind of experiment: Binding affinity to DNA (unknown origin) assessed as DNA intercalation. It counts as nucleic-acid assay.
In test [3] the test system is HepG2. The test can be described thus: Anticancer activity against human HepG2 cells assessed as reduction in cell viability. It counts as functional, cell-based.
The test system of test [4] is Staphylococcus aureus. As to the kind of experiment: Antibacterial activity against Staphylococcus aureus ATCC 25923 assessed as inhibition of bacterial growth incubated for 24 hrs by broth macrodilution method. It counts as functional.
The next test has as its target DNA topoisomerase II (Homo sapiens, UniProt P11388+Q02880). As to the kind of experiment: Inhibition of DNA topoisomerase 2 (unknown origin). It counts as protein assay.
Test [5] has as its system Staphylococcus aureus. As to the kind of experiment: Antibacterial activity against Staphylococcus aureus ATCC 25923 assessed as diameter of inhibition zone incubated for 24 hrs by disc diffusion assay. It counts as functional. Background: In agar diffusion tests the substance spreads into inoculated agar from a disc or well.
The test system of test [6] is Bacillus subtilis. The test can be described thus: Antibacterial activity against Bacillus subtilis ATCC 6633 assessed as diameter of inhibition zone incubated for 24 hrs by disc diffusion assay. Type of test: functional.
In test [7] the test system is Bacillus subtilis. As to the kind of experiment: Antibacterial activity against Bacillus subtilis ATCC 6633 assessed as inhibition of bacterial growth incubated for 24 hrs by broth macrodilution method. Type of test: functional.
The target in test [8] is Hydroxycarboxylic acid receptor 2 (Homo sapiens, UniProt Q8TDS4). As to the kind of experiment: Agonist activity at human HCA2 expressed in human Flp-In-293 cells assessed as inhibition of forskolin-stimulated cAMP accumulation at 50 uM incubated for 30 mins by Lance cAMP assay. It counts as cell-based. As to conditions: filed as agonist.
Sequence of Hydroxycarboxylic acid receptor 2 (Q8TDS4 whole entry): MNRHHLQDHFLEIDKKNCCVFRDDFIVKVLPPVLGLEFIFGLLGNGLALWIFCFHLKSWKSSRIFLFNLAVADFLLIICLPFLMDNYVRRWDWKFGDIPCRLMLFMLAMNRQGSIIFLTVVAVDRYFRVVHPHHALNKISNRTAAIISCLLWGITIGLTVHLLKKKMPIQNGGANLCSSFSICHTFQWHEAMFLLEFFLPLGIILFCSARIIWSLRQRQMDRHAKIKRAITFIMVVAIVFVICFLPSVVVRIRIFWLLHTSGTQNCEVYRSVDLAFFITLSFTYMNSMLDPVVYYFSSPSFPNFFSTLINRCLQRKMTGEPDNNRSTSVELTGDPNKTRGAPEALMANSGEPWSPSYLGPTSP
The subject of test [9] is PC-3. The test can be described thus: Anticancer activity against human PC-3 cells assessed as cell growth inhibition by sulforhodamine B assay. It counts as functional.
Test [10] deals with OVCAR-3. As to the kind of experiment: Anticancer activity against human OVCAR-3 cells assessed as lethality by sulforhodamine B assay. Type of test: functional. As to conditions: read-out: LC50 (the source's name). (In SRB staining, fixed cells bind dye roughly in proportion to their protein.)
The test system of test [11] is MDA-MB-435. The test can be described thus: Anticancer activity against human MDA-MB-435 cells assessed as tumor growth inhibition by sulforhodamine B assay. It counts as functional.
Test [12] relates to PC-3. As to the kind of experiment: Anticancer activity against human PC-3 cells assessed as lethality by sulforhodamine B assay. Type of test: functional. As to conditions: read-out: LC50 (the source's name).
Test [13] concerns PC-3. As to the kind of experiment: Anticancer activity against human PC-3 cells assessed as tumor growth inhibition by sulforhodamine B assay. Type of test: functional.
The test system of test [14] is MDA-MB-435. As to the kind of experiment: Anticancer activity against human MDA-MB-435 cells assessed as cell growth inhibition by sulforhodamine B assay. Type of test: functional.
In test [15] the test system is MDA-MB-435. The test can be described thus: Anticancer activity against human MDA-MB-435 cells assessed as lethality by sulforhodamine B assay. It counts as functional. Particulars: read-out: LC50 (the source's name).
Test [16] has as its system OVCAR-3. The test can be described thus: Anticancer activity against human OVCAR-3 cells assessed as cell growth inhibition by sulforhodamine B assay. Type of test: functional.
For test [17], the system named is OVCAR-3. As to the kind of experiment: Anticancer activity against human OVCAR-3 cells assessed as tumor growth inhibition by sulforhodamine B assay. It counts as functional.
The subject of the next test is Escherichia coli. As to the kind of experiment: Antimicrobial activity against Escherichia coli assessed as diameter of inhibition zone by agar well diffusion method. Type of test: functional.
Test [18] has as its system Bacillus subtilis. The test can be described thus: Antimicrobial activity against Bacillus subtilis assessed as diameter of inhibition zone by agar well diffusion method. It counts as functional.
The nature of test [19]: Antioxidant activity assessed as DPPH radical scavenging activity at 25 ug/ml incubated for 30 mins by spectrophotometric analysis. It counts as functional. Particulars: dose 25.0 µg/ml. (In general: The DPPH test is a chemical assay of radical scavenging.)
The test system of test [20] is MCF7. The test can be described thus: cells. As to conditions: Homo sapiens, MCF7, 48 h.
The next test deals with HeLa. As to the kind of experiment: Anticancer activity against human HeLa cells assessed as reduction in cell viability incubated for 48 hrs by MTT assay. It counts as functional, cell-based.
Test [21] has as its system PC-3. The test can be described thus: Anticancer activity against human PC-3 cells assessed as reduction in cell viability. Type of test: functional, cell-based.
Test [22] relates to MCF7. The test can be described thus: Anticancer activity against human MCF7 cells assessed as reduction in cell viability incubated for 24 hrs by MTT colorimetric assay. Type of test: functional, cell-based. As to conditions: MCF7, 24 h.
For another test, the system named is A549. As to the kind of experiment: Anticancer activity against human A549 cells assessed as reduction in cell viability incubated for 24 hrs by MTT assay. It counts as functional, cell-based. Particulars: A549, 24 h.
The subject of test [23] is HepG2. As to the kind of experiment: Anticancer activity against human HepG2 cells assessed as reduction in cell viability incubated for 24 hrs by MTT colorimetric assay. It counts as functional, cell-based. As to conditions: HepG2, 24 h.
Test [24] relates to HCT-116. As to the kind of experiment: Anticancer activity against human HCT-116 cells assessed as reduction in cell viability incubated for 24 hrs by MTT colorimetric assay. Type of test: functional, cell-based. As to conditions: HCT-116, 24 h.

pIC50: −log10 of the molar value. In brackets after ≈: the same amount, converted by molar mass. A value given as a limit tells only on which side of the number the result lay.

Broadly, the pIC50 is the IC50 on a negative log10 scale, so that one unit is a factor of ten. One may read the MIC as the lowest concentration found to suppress growth. In general, IC50 refers to the concentration needed to halve the response being measured. What is called Emax is the maximal effect, on the per cent scale that the assay sets. A word on the GI50: it is the concentration giving 50% growth inhibition. One may read the TGI as the reduction of tumour growth relative to the control group.

For the molecule `CCC(C)n1cnc2c(c1=N)C(c1ccc(OC)cc1)c1c([nH]c(=O)[nH]c1=O)O2` (centres undefined), the pIC50 in the test with HCT-116 [1] is 5.58; with MCF7 [2], 5.61; on DNA it was 4.57; in the test on HepG2 [3], 5.68. Besides, the minimal inhibitory concentration (MIC) in the test with Staphylococcus aureus [4] worked out at 1.56 µg/mL (≈ 3.95 µM); in the test on Bacillus subtilis [7], 0.097 µg/mL (≈ 0.245 µM). At DNA topoisomerase II, the IC50 worked out at 0.752 µM. In addition, the “diameter of the inhibition zone (DIZ)” value worked out at 20.8 mm in the test with Staphylococcus aureus [5] and 26 mm in the test with Bacillus subtilis [6].

`NC(=O)CSc1nc(=O)c2c(CCCCCl)cc(=O)oc2[nH]1`: the Emax in test [8] worked out at 87%.

With `N#CC1=C(N)Oc2[nH]c(=O)[nH]c(=O)c2C1c1ccco1` (centres undefined), the 50% growth inhibitory concentration (GI50) with PC-3 [9], in the test on MDA-MB-435 [14] and with OVCAR-3 [16] was more than 100 µM throughout. Also, the CC50 with OVCAR-3 [10], in the test with PC-3 [12] and in the test on MDA-MB-435 [15] was more than 100 µM throughout. Also, the TGI in the test on MDA-MB-435 [11] is on record as more than 100%; in the test on PC-3 [13], 98.8%; in the test on OVCAR-3 [17], more than 100%.

In the case of `C[C@H]1COc2c(N3CCN(C)CC3)c(F)cc3c(=O)c(C(=O)O)cn1c23.C[C@H]1COc2c(N3CCN(C)CC3)c(F)cc3c(=O)c(C(=O)O)cn1c23.O` [LEVOFLOXACIN], the “diameter of the inhibition zone (DIZ)” value in the test on Escherichia coli worked out at 29.35 mm; with Bacillus subtilis [18], 26 mm.

In the case of `NC(=O)C1=C(N)Oc2[nH]nc(-c3ccccc3)c2C1c1coc2ccccc2c1=O` (centres undefined), the Activity in [19] came out at 62.5%.

Regarding `COc1cccc2c1C(=O)c1c(O)c3c(c(O)c1C2=O)C[C@@](O)(C(=O)CO)C[C@@H]3O[C@H]1C[C@H](N)[C@H](O)[C@H](C)O1.Cl` [DOXORUBICIN HYDROCHLORIDE], the 50% growth inhibitory concentration (GI50) with PC-3 [9], in the test on MDA-MB-435 [14] and in the test on OVCAR-3 [16] was less than 0.1 µM each time. Further, the CC50 in the test with OVCAR-3 [10] is more than 100 µM; with PC-3 [12], more than 100 µM; in the test on MDA-MB-435 [15], 91.8 µM. Also, the pIC50 in the test on MCF7 [20] and in the test on HeLa was more than 5.00 throughout. The figures for the TGI in the test with MDA-MB-435 [11], in the test with PC-3 [13] and in the test with OVCAR-3 [17] were 5.5%, 76.7% and 56.3%, respectively.

For `COc1ccc(C2c3c([nH]c(=O)[nH]c3=O)Oc3ncn(C(=S)Nc4ccccc4)c(=N)c32)cc1` (centres undefined), the pIC50 was 5.58 in the test on HCT-116 [1], 5.61 with MCF7 [2], 4.57 at DNA and 5.68 in the test on HepG2 [3]. In addition, the IC50 on DNA topoisomerase II is 0.791 µM.

For the molecule `CCOC(=O)C1=C(N)Oc2[nH]c(=O)[nH]c(=O)c2C1c1cccc([N+](=O)[O-])c1` (centres undefined), the IC50 in the test with HCT-116 [1] amounted to 0.25 µg/mL; with HepG2 [3], 0.25 µg/mL; in the test on PC-3 [21], 0.25 µg/mL (≈ 0.668 µM).

For `COc1cccc2c1C(=O)c1c(O)c3c(c(O)c1C2=O)C[C@@](O)(C(=O)CO)C[C@@H]3O[C@H]1C[C@H](N)[C@H](O)[C@H](C)O1` [DOXORUBICIN], the negative logarithm of the IC50 (pIC50) with MCF7 [22] is 6.33; in the test with HCT-116 [1], 5.58; in the test on A549 it was 6.85; with HepG2 [3] it was 5.10; in the test with HepG2 [23], 6.33; with HCT-116 [24] it was 6.33. Also, the half-maximal inhibitory concentration (IC50) with PC-3 [21] was determined as 0.467 µg/mL (≈ 0.859 µM); against DNA topoisomerase II it was 0.94 µM.

The values above are taken from ChEMBL document CHEMBL5241112, “Insights into the recent progress in the medicinal chemistry of pyranopyrimidine analogs” (RSC Med Chem, 2022).
